# From ChEMBL document CHEMBL1201862, “PubChem BioAssay data set” (2004)
# Active and inactive are the calls of the source.
# Assays:
# [1] = viability of uninfected HEp-2 cells – cell-based, HTS, cytotoxicity control for RSV inhibitor project, dose response (AID 2410); type: functional; conditions: human respiratory syncytial virus
# [2] = antiviral protection against BTV-induced cell death – arbovirus, BSR cells, confirmation (AID 1250); type: functional;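 also: protection from viral cytopathic effect measured as cell viability by ATP luminescence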
# [3] = target: Luciferin 4-monooxygenase (Photinus pyralis, UniProt P08659); assay: Counter Screen for Luciferase-based Assay Positives. [Related pubchem assays: 620, 618, 411 ]
# Sequence of Luciferin 4-monooxygenase (P08659 whole entry): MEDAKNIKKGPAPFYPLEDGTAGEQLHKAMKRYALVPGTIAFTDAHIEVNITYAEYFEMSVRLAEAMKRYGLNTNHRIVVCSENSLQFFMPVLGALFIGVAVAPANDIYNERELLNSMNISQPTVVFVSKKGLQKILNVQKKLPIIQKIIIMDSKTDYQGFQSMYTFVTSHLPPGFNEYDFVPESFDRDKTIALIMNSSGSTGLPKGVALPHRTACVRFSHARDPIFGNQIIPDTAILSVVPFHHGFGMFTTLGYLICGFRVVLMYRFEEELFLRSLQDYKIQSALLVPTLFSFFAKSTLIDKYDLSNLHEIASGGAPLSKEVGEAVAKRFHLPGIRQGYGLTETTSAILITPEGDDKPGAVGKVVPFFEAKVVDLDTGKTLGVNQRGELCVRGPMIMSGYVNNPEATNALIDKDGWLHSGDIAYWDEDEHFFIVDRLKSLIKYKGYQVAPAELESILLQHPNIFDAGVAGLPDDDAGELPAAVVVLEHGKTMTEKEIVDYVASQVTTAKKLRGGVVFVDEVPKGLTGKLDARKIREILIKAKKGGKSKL
# HT-1080 = assay: HT1080 cell viability loss – fluorescence readout (AID 620); type: functional, cell-based; conditions: Homo sapiens
# Caspase-3 = target: T1, Caspase-3 (Homo sapiens, UniProt P42574); type: functional;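 also: Dose-response selectivity test against caspase-3 for candidate inhibitors of sentrin-specific proteases (SENPs)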
# T1 sequence (P42574 whole entry): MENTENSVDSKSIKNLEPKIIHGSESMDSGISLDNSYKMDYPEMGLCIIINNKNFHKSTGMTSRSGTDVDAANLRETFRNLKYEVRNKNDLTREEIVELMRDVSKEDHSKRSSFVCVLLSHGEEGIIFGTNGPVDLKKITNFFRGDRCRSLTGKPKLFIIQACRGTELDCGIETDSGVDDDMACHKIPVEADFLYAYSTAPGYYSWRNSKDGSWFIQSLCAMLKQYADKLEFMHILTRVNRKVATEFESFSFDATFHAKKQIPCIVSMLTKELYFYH
# [4] = target: T2, Sentrin-specific protease 7 (Homo sapiens, UniProt Q9BQF6); type: functional;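 also: Luminescence-based dose-response confirmation of ultra-high-throughput screening hits, measuring inhibition of SENP7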
# T2 sequence (Q9BQF6 whole entry): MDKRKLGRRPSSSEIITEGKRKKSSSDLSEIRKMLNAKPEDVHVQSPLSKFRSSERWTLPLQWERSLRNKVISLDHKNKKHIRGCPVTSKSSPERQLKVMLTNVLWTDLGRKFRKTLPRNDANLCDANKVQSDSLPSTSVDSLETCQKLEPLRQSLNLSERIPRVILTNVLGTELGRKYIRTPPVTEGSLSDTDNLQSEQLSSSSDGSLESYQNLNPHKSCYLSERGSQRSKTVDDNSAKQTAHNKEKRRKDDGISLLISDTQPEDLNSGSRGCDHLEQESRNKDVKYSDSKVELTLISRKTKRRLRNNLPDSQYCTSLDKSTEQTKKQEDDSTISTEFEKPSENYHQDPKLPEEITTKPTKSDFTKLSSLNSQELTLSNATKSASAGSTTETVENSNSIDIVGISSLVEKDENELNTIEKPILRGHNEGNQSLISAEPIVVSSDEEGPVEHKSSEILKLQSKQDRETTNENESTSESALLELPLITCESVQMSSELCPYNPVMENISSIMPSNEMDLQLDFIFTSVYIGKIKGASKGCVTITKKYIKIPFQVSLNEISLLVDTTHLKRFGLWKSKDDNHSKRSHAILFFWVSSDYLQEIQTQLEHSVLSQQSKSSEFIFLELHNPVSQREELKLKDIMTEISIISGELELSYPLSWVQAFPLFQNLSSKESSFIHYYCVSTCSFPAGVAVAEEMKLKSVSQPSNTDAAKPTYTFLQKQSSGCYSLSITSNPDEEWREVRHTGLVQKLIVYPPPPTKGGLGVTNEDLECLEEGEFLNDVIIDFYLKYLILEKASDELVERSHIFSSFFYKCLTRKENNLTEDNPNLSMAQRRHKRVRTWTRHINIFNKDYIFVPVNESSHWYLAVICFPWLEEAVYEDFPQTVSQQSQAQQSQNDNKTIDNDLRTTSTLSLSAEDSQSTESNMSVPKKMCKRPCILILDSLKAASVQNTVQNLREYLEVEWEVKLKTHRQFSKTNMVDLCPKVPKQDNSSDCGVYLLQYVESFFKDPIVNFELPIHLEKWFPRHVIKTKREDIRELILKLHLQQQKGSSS
# [5] = target: T3, Sentrin-specific protease 6 (Homo sapiens, UniProt Q9GZR1); type: functional;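 also: Luminescence-based dose-response confirmatory assay of SENP6 inhibition, following up an ultra-high-throughput screen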
# T3 sequence (Q9GZR1 whole entry): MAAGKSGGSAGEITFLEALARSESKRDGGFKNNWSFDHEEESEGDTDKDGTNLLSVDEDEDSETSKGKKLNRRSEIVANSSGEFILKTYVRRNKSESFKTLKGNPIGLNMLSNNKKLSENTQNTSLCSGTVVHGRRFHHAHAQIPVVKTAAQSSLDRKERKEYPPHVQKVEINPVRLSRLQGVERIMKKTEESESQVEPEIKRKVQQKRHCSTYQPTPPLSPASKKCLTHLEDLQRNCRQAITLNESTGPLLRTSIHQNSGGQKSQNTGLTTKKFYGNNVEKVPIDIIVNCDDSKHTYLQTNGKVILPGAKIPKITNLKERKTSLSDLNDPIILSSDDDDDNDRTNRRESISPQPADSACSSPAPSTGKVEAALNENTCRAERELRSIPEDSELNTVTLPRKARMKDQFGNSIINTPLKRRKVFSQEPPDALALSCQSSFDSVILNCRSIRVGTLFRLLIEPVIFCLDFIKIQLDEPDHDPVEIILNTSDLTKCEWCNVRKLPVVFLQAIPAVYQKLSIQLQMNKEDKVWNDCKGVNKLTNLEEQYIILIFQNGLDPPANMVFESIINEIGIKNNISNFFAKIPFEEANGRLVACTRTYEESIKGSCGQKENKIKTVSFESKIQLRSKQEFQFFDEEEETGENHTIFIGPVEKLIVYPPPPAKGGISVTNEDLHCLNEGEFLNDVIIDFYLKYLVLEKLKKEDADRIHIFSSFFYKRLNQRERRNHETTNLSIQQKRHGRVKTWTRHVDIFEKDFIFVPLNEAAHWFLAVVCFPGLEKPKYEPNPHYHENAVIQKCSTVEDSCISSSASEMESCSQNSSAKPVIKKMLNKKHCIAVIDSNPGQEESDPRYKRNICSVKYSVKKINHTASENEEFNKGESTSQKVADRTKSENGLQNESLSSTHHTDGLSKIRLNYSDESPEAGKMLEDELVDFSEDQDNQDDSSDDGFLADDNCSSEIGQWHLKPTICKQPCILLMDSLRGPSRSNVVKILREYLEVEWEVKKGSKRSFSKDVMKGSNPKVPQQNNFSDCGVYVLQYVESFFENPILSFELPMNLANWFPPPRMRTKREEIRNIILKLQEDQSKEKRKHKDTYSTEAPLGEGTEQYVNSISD
# [6] = target: T4, Sentrin-specific protease 8 (Homo sapiens, UniProt Q96LD8); type: functional;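 also: luminescence read-out of SENP8 inhibition, dose-response confirmation following an ultra-high-throughput screen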
# T4 sequence (Q96LD8 whole entry): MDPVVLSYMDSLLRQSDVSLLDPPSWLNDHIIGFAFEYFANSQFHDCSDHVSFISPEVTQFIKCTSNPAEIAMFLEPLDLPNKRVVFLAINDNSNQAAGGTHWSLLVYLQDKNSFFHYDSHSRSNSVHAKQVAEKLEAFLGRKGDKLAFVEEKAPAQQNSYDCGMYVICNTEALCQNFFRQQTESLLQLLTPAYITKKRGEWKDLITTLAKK
# [7] = target: T5, Oxysterols receptor LXR-beta (Homo sapiens, UniProt P55055); type: functional, cell-based;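 also: Cell-based luminescence dose-response assay of agonist activity at LXR, run as a confirmatory counterscreen to a daf-12 agonist screen; HEK293 cells with Gal4-LXR fusion and GAL4-driven luciferase reporter; agonist potency from rising luciferase signal of a Gal4-LXR reporter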
# T5 sequence (P55055 whole entry): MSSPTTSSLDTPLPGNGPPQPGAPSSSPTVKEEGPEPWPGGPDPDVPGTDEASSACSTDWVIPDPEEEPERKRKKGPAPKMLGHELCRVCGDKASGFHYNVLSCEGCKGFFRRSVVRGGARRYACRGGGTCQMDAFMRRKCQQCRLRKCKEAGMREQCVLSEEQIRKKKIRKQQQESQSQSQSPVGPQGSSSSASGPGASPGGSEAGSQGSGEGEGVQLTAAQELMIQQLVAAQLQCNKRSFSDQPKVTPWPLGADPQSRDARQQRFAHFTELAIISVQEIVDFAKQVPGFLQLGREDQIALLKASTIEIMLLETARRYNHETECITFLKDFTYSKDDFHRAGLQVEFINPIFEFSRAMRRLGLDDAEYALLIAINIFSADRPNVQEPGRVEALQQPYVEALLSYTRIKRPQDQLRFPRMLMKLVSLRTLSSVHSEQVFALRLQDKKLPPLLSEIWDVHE
# [8] = target: T6, Sphingosine 1-phosphate receptor 4 (Homo sapiens, UniProt O95977); assay: Late stage fluorescence dose response cell-based screening assay for antagonists of the Sphingosine 1-Phosphate Receptor 4 (S1P4). [Related pubchem assays: 1524 (Confirmation screen (S1P4 antagonists).), 1510 (Primary screen (S1P4 antagonists).), 1853 (Summary AID (S1P4 antagonists).), 1692 (Dose response screen (S1P4 antagonists).)]; type: functional
# T6 sequence (O95977 whole entry): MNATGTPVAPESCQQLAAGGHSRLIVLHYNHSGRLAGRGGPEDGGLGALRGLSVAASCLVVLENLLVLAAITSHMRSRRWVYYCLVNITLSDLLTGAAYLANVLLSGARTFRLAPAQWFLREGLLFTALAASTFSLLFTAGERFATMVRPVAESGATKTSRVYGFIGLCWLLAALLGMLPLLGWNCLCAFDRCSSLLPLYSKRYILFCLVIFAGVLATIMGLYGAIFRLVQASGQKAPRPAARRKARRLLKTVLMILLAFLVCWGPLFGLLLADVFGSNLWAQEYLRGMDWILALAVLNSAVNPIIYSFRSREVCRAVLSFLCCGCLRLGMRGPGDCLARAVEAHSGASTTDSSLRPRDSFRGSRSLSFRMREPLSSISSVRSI
# [9] = target: T6, Sphingosine 1-phosphate receptor 4; assay: Fluorescence dose response cell-based high throughput screening assay for antagonists of the Sphingosine 1-Phosphate Receptor 4 (S1P4). [Related pubchem assays: 1524 (Confirmation in triplicates.), 1510 (Primary screen.)]; type: functional
# [10] = target: Sphingosine 1-phosphate receptor 1 (Homo sapiens, UniProt P21453); type: functional;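 also: Tango beta-arrestin reporter U2OS cells stimulated with S1P near its EC80; inhibitor potency meaning antagonism of receptor activation by the natural agonist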
# Sequence of Sphingosine 1-phosphate receptor 1 (P21453 whole entry): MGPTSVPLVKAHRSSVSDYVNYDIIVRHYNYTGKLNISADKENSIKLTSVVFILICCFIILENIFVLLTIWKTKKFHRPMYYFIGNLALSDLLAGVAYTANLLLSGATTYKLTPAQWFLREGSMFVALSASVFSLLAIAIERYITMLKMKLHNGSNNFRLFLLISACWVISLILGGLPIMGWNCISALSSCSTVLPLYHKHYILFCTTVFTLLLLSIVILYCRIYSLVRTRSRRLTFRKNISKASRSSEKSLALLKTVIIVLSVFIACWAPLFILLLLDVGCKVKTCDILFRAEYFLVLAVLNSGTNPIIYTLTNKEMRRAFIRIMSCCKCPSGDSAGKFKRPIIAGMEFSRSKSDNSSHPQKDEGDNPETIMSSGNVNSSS
# INS1 = assay: INS-1E survival protection against cytokine death – cell-based, luminescence, retest, dose response (AID 449756); type: functional; conditions: Rattus norvegicus;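 also: cell death triggered by IL-1 beta plus TNF-alpha plus IFN-gamma mixture; protective hits raise ATP signal compared with cytokine alone wells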
compound,measurement,setting,value
COc1ccc(-c2cc(-c3ccc(OC)c(OC)c3)[nH]n2)c(O)c1,CC50,[1],46.3 µM (active)
same,IC50,[2],45.6 µM (active)
COc1cc([N+](=O)[O-])ccc1N/C=C/C(=O)c1cccs1,EC50,[3],4.17 µM (active)
same,EC50,HT-1080,> 50 µM (not active)
same,IC50,Caspase-3,1.53 µM (active)
same,IC50,[4],863 nM (active)
same,IC50,[5],1.15 µM (active)
same,IC50,[6],2.62 µM (active)
same,EC50,[7],> 67.5 µM (inactive)
same,EC50,cells,> 67.5 µM (inactive)
CCOC(=O)C(=Cc1ccc(Br)cc1)C(=O)OCC,IC50,[8],887 nM (active)
same,IC50,[9],419 nM (active)
same,IC50,[10],9.77 µM (active)
same,AC50,INS1,25 µM (active)
